Results from patent publication US20060009520A1, “Retinoid-based methods for altering macrophage cholesterol” (priority 2004, published 2006).

Legend:
ABCA1 protein [1] = assay: Western blot of ABCA1 protein in mouse peritoneal macrophages; format: cell-based; conditions: 24 h
Method: (§1) Protein extracts from macrophages were prepared by lysing the cells in modified radioimmunoprecipitation assay buffer (50 mM Tris, 150 mM NaCl, 1 mM EDTA. 1% Triton X-100) containing a protease inhibitor cocktail (Complete EDTA Free; Roche). Protein content in the extracts was determined by using the DC protein assay (Bio-Rad, Hercules, Calif.). Equal amounts of protein (40 to 50 μg) were separated by electrophoresis with 4 to 15% acrylamide gradient gels (Bio-Rad) and then transferred to nitrocellulose membrane (Trans-Blot Transfer Medium; Bio-Rad). Membranes were probed with anti-ABCA1 antibody (Novus Biologicals, Littleton, Colo.) and anti-β-actin antibody (Sigma) according to the manufacturer's recommendations. Immunoblots were developed by using a chemiluminescent detection system (Super Signal West Pico chemiluminescent substrate; Pierce, Rockford, Ill.).

ABCA1 protein [2] = assay: Western blot of ABCA1 protein in human monocyte-derived macrophages; format: cell-based; conditions: human primary monocytes/macrophages, 10 μM, 24 h
Method: as §1

[3] = tested on: ABCA1, ABCG1, SREBP-1c, apoE, LXRα, Cyp26 mRNA; assay: Quantitative real-time PCR of LXR target genes and Cyp26 in mouse peritoneal macrophages; format: cell-based; conditions: 24 h
Method: Total RNA was isolated from mouse peritoneal macrophages or ˜50 mg of mouse liver tissue by using the RNeasy Mini kit (Qiagen, Valencia, Calif.) or RNA-Bee reagent (Tel-Test, Inc., Friendswood, Tex.), respectively, according to the manufacturer's protocol. Real-time quantitative PCR assays were performed by using the Mx4000 Quantitative PCR System (Stratagene, La Jolla, Calif.). Briefly, 5 μg of total RNA was treated with RNase-free DNase I (Ambion, Austin, Tex.), and first-strand cDNA was synthesized with oligo(dT)12-18 by using a Superscript II RNase H^− reverse transcriptase reagent kit (Invitrogen) according to the manufacturer's protocol. For quantification of mouse ABCA1, ABCG1, SREBP-1c, LXRα, ApoE, and fatty acid synthase (FAS) mRNA levels, each amplification mixture contained 62.5 ng of cDNA, appropriate concentrations of forward and reverse primers and of dual-labeled fluorogenic probe (Biosearch Technologies, Novato, Calif.), and 12.5 μl of TaqMan Universal PCR master mix (Applied Biosystems, Foster City, Calif.). PCR thermocycling parameters were 50° C. for 2 min, 95° C. for 10 min, and 45 cycles of 95° C. for 15 s and 60° C. for 1 min. All samples were analyzed for β-actin expression in the same run. Quantitative expression values were extrapolated from standard curves for the gene of interest with 10-fold dilutions of cDNA (in triplicate). Each sample was normalized to β-actin, triplicates were averaged, and relative mRNA levels were determined. The following mouse primers and probes were used: mouse ABCA1 (mABCA1) forward (F) (5′-[…]-3′), mABCA1 reverse (R) (5′-[…]-3′), and mABCA1 TaqMan probe (5′-FAM-[…]-BHQ-3′); mABCG1 F (5′-[…]-3′), mABCG1 R (5′-[…]-3′), and mABCG1 TaqMan probe (5′-FAM-[…]-BHQ-3′); mSREBP-1c F (5′-[…]-3′), mSREBP-1c R (5′-[…]-3′), and mSREBP-1c TaqMan probe (5′-FAM-[…]-BHQ-3′); mApoE F (5′-[…]-3′), mApoE R (5′-[…]-3′), and mApoE TaqMan probe (5′-FAM-[…]-BHQ-3′); mLXRα F (5′-[…]-3′), mLXRα R (5′-[…]-3′), and mLXRα TaqMan probe (5′-FAM-[…]-BHQ-3′); mFAS F (5′-[…]-3′), mFAS R (5′-[…]-3′), and mFAS TaqMan probe (5′-FAM-[…]-BHQ-3′); and mβ-actin F (5′-[…]-3′), mβ-actin R (5′-[…]-3′), and mβ-actin TaqMan probe (5′-JOE-[…]-BHQ-3′).
(§2) For quantification of mouse Cyp26 mRNA levels, each amplification mixture (25 μ) contained 62.5 ng of cDNA, 100 nM concentrations of reverse and forward primers, and 2.5 μl of 10× SYBR Green PCR master mix (Perkin-Elmer Life Sciences, Boston, Mass.). Quantitative expression values were extrapolated from standard curves for Cyp26 expression with 10-fold dilutions of cDNA (in triplicate). Each sample was normalized to β-actin that was deduced from TaqMan assays, triplicate results were averaged, and relative Cyp26 mRNA levels were determined. The primers mCyp26 F (5′-[…]-3′) and mCyp26 R (5′-[…]-3′) were used. RNA measurements from human monocyte-derived macrophages were performed as described previously (10, 44).

[4] = tested on: ABCA1, ABCG1, SREBP-1c, apoE, LXRα, Cyp26 mRNA; assay: Quantitative real-time PCR of LXR target genes and Cyp26 in human monocyte-derived macrophages; format: cell-based
Method: as §2

RARγ protein = assay: Western blot of RARγ protein in macrophages; format: cell-based; conditions: macrophages incubated with ATRA
Method: Nuclear protein extracts from tissues and macrophages were isolated according to the following method. Tissue samples and cells were first homogenized on ice and then lysed in lysis buffer (10 mM Tris [pH 7.5], 3 mM MgCl2, 10 mM NaCl, 0.5% NP-40) containing protease inhibitor cocktail. The nucleus was then pelleted by centrifugation for 10 min at 6,000× g, immediately resuspended in a nucleus suspension buffer (250 mM Tris [pH 8.0], 60 mM KCl, I mM dithiothrietol), and then rotated for 1 h. […] The intensities of the bands were quantified by using ImageQuant and normalized to (β-actin.

[5] = tested on: acute promyelocytic leukemia; conditions: patients with acute promyelocytic leukemia; cited from earlier work
[6] = tested on: ABCA1-mediated cholesterol efflux from mouse peritoneal macrophages; assay: Cholesterol efflux to apoA-I from cholesterol-loaded macrophages
[7] = mouse primary macrophages, ATRA 0.1 to 5 μM
[8] = human primary monocytes/macrophages, ATRA 0.5 to 5 μM, 24 h

CC1=C(/C=C/C(C)=C/C=C/C(C)=C/C(=O)O)C(C)(C)CCC1 [ATRA, all-trans-retinoic acid]
ABCA1 protein levels (ABCA1 protein [1]): dose dependently increased | ABCA1 protein (ABCA1 protein [2]): increased | ABCA1 mRNA ([3]; mouse peritoneal macrophages, ATRA 0.1 to 5 μM): increase in the mRNA that was parallel to the dose response of protein and cholesterol efflux | lowest dose giving ABCA1 mRNA response ([3]; mouse primary macrophages): 0.25 µM | ABCG1 mRNA induction [3, 7]: weaker and somewhat inconsistent induction | LXRα mRNA induction [3, 7]: no significant induction | SREBP-1c mRNA induction [3, 7]: weaker and somewhat inconsistent induction | apoE mRNA induction [3, 7]: no significant induction | apoE mRNA induction ([4]; human primary macrophages, even at the higher dose): not induced | ABCA1 mRNA induction [4, 8]: strong induction | ABCG1 mRNA induction [4, 8]: strong induction | LXRα mRNA induction [4, 8]: weaker but significant increases | SREBP-1c mRNA induction [4, 8]: weaker but significant increases | induction of RARγ protein (RARγ protein): < 2 fold | patients in whom remission is induced [5]: ca. 80% | ABCA1-dependent cholesterol efflux to apoA-1, dose response [6]: increased ABCA1-dependent cholesterol efflux to apoA-1 in a dose-dependent fashion | increase in cholesterol efflux to apoA-I, ATRA compared with TO-901317 ([6]; 1 and 5 μM ATRA): comparable to that occurring in macrophages treated with the LXR activator TO-901317 | increase of cholesterol efflux to apoA-1 ([6]; maximum dose of 10 μM): ~2 fold
